Patent publication US20080286357A1, “MULTI-FUNCTIONAL PARTICULATE DELIVERY SYSTEM FOR PHARMACOLOGICALLY ACTIVE INGREDIENTS” (Balchem Corporation, priority 2007, published 2008)

Experiment: Flow and bulk density of powder blend
Format: physicochemical
Method: The procedure is described in USP<616<Bulk Density and Tapped Density.
CabOSil with ubidecarenone is co-sieved through a 30-mesh. The ProSolv HD90 and multi-functional particulate system are added. The powder mix is blended at maximum speed for ten minutes. The powder mix is then sieved through a 40-mesh. Polyplasdone Crospovidone is added, and the mixture is blended at maximum speed for two minutes Finally, Mg-stearate is added, and the mixture is blended at maximum speed for two minutes.

## COC1=C(OC)C(=O)C(C/C=C(\C)CC/C=C(\C)CC/C=C(\C)CC/C=C(\C)CC/C=C(\C)CC/C=C(\C)CC/C=C(\C)CC/C=C(\C)CC/C=C(\C)CCC=C(C)C)=C(C)C1=O [Ubidecarenone]
  flow (in words): does not flow
